Like-named read-outs stand apart in the source and are kept apart here.
Tests used:
A549 = experiment: 72-h MTT cellular proliferation assay, A549; assay type: cell-based; conditions: Homo sapiens, A549, 72 h; read-out: Anti-proliferative activity on tumour cell lines (MTT assay) A549 IC50
Experimental: (§1) Cellular proliferation assays using human tumour cell lines (obtained from the American Type Culture Collection, 10801 University Boulevard, Manessas, Va. 20110-2209, USA) were carried out. Standard 72-h MTT (thiazolyl blue; 3-[4,5-dimethylthiazol-2-yl]-2,5-diphenyltetrazolium bromide) assays were performed (Loveland et al, Biochem. Int., 1992, 27, 501; Haselsberger et al, Anti Cancer Drugs, 1996, 7, 331). In short: cells were seeded into 96-well plates according to doubling time and incubated overnight at 37° C. Test compounds were made up in DMSO and a ⅓ dilution series prepared in 100 μL cell media, added to cells (in triplicates) and incubated for 72 h at 37° C. MTT was made up as a stock of 5 mg/mL in cell media and filter-sterilised. Media was removed from cells followed by a wash with 200 μL PBS. MTT solution was then added at 20 μL per well and incubated in the dark at 37° C. for 4 h. MTT solution was removed and cells again washed with 200 μL PBS. MTT dye was solubilised with 200 μL per well of DMSO with agitation.

U2OS = experiment: 72-h MTT cellular proliferation assay, U2OS; assay type: cell-based; conditions: Homo sapiens, read-out: Anti-proliferative activity on tumour cell lines (MTT assay) U2OS IC50
Experimental: as §1

HELA = experiment: 72-h MTT cellular proliferation assay, HELA; assay type: cell-based; conditions: Homo sapiens, read-out: Anti-proliferative activity on tumour cell lines (MTT assay) HELA IC50
Experimental: as §1

human PLK1 = target: T1, human PLK1 (Homo sapiens, UniProt P53350); experiment: PLK1 protein kinase assay (CDC25C phosphorylation, [γ-32P]-ATP); assay type: biochemical; conditions: read-out: PLK1 kinase inhibition IC50
T1 construct: A full-length human PLK1 (XM—047240) (amino acids 1-603) clone; His6 (N); made in house; host or cells: Sf9 insect cells (baculovirus) for PLK1; E. coli BL21(DE3) RIL for CDC25C
T1 sequence (P53350 whole entry, the tested form may be a part): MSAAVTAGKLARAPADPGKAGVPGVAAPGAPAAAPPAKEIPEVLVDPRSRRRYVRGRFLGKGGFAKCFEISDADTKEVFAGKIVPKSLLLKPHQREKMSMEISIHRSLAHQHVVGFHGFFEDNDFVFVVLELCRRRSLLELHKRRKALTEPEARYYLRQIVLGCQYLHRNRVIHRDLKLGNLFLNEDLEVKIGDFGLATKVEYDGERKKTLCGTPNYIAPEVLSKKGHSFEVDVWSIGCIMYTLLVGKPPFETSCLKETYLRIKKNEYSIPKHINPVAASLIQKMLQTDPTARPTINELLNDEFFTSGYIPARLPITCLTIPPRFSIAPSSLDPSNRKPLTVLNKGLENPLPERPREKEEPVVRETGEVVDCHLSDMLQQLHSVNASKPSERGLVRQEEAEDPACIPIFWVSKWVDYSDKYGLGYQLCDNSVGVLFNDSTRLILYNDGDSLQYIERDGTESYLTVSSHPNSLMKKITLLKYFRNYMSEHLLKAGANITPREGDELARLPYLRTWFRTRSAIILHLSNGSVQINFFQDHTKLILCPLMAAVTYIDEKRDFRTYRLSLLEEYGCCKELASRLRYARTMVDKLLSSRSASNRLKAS
Description: A full-length human CDC25C clone was isolated by PCR from HeLa mRNA and was inserted on a BamHI-HindIII fragment into pRsetA. The amino terminal fragment of CDC25C (encoding residues 1-300) was excised from this vector and inserted into pET28a (between the NcoI and BamHI sites). Expression was under the control of the T7 promoter, and the encoded protein contained a His6 tag at the carboxyl terminus. The vector was transformed into E. coli strain BRL(DE3) pLysS for expression experiments. CDC25C was expressed in BL21(DE3) RIL bacteria cells, grown in LB media at 37° C. until OD600nm of 0.6 was reached. The expression was induced with 1 mM IPTG and the bacterial culture was grown further for 3 h. The bacteria were harvested by centrifugation and the cell pellet was re-suspended in 50 mM Tris pH 7.5 and 10% sucrose, flash frozen, and stored at −70° C. until used. CDC25C protein was purified from E. coli inclusion bodies. The inclusion bodies were isolated in a buffer (50 mM Tris pH 8.0, 2 mM EDTA, 100 mM NaCl, 0.5% triton X-100). After denaturation in the presence of 6 M urea, the protein was refolded via slow dialysis of the urea. The protein was stored in 25 mM Tris pH 8.0, 100 mM NaCl, 1 mM DTT, 1 mM EDTA and 10% glycerol at −70° C. until used.
A full-length human PLK1 (XM—047240) (amino acids 1-603) clone was amplified from a foetal lung cDNA library using primers incorporating restriction enzyme sites. […] The 3′ primer ([…]) incorporated a stop codon prior to the EcoR1 site. The PCR product was cloned into the Nhe1/EcoR1 sites of a baculovirus expression vector, pSSP 1. […] Cells were only used for expression in logarithmic growth phase. […] The flasks were incubated at 27° C., with shaking at 100 r.p.m. for 48 h. On harvest, cell density and viability was determined, the cultures spun down at 2500 r.p.m. for 5 min and washed with ice-cold phosphate-buffered saline. The wash was re-spun at the same speed and the pellet was snap frozen. PLK1 protein was purified on a metal affinity column.
PLK1 protein kinase assays were carried out using a 96-well plate format by incubating CDC25C (2 μg/well) with PLK1 (1 μg/well) in 20 mM Tris/HCl buffer pH 7.5, supplemented with 25 mM β-glycerophosphate, 5 mM EGTA, 1 mM DTT and 1 mM NaVO3. Serial dilutions of test compound in assay buffer were added. […] The reaction mixture was incubated at 30° C. for 1 h, then stopped with 75 mM aq orthophosphoric acid, transferred onto a 96-well P81 filter plate (Whatman), dried, and the extent of CDC25C phosphorylation was assessed by scintillation counting using a Packard TopCount plate reader. The raw assay data was analysed by non-linear regression analysis parameters and IC50 values were determined using the equation: y=A+((B−A)/(1+((C/x)ˆD))), where y is % inhibition, A is minimum inhibition, B is maximum inhibition, C is EC50, and D is the slope factor.

MCF-7 = experiment: 72-h MTT cellular proliferation assay, MCF-7; assay type: cell-based; conditions: Homo sapiens, MCF7; MCF-7, 72 h; read-out: Anti-proliferative activity on tumour cell lines (MTT assay) MCF-7 IC50
Experimental: as §1

Structure (SMILES)	IC50 (A549) [µM]	IC50 (U2OS) [µM]	IC50 (HELA) [µM]	IC50 (human PLK1; 100 μM ATP) [µM]	IC50 (MCF-7) [µM]	melting point [°C]	IC50 (human PLK1; kinase assay at 10 μM ATP) [µM]
O=C(c1sc2c([N+](=O)[O-])cc(C(F)(F)F)cc2[n+]1[O-])N1CCCC1 [Compound 1b, (7-Nitro-3-oxy-5-trifluoromethyl-benzothiazol-2-yl)-pyrrolidin-1-yl-methanone]	5.2	16	12	56 ± 19	–	–	–
O=[N+]([O-])c1cc(C(F)(F)F)cc2c1sc(O)[n+]2[O-] [Compound 1i, 7-Nitro-3-oxy-5-trifluoromethyl-benzothiazol-2-ol]	48 ± 5	88 ± 10	56 ± 2	39	35 ± 2	–	–
N#Cc1sc2c([N+](=O)[O-])cc(C(F)(F)F)cc2[n+]1[O-] [Compound 1h, 7-Nitro-3-oxy-5-trifluoromethyl-benzothiazole-2-carbonitrile]	10 ± 0.08	9.5 ± 1.7	10.2 ± 3.3	21	2.1 ± 1.5	–	–
NNC(=O)c1sc2c([N+](=O)[O-])cc(C(F)(F)F)cc2[n+]1[O-] [Compound 1c, 7-Nitro-3-oxy-5-trifluoromethyl-benzothiazole-2-carboxylic acid hydrazide]	21 ± 3	35 ± 3	16 ± 10	> 100	19 ± 16	229 to 230	–
O=C(NO)c1sc2c([N+](=O)[O-])cc(C(F)(F)F)cc2[n+]1[O-] [Compound 1e, 7-Nitro-3-oxy-5-trifluoromethyl-benzothiazole-2-carboxylic acid hydroxyamide]	13.3 ± 0.6	29.4 ± 1.2	21 ± 4	50 to 100	9 ± 1	230 to 231	–
O=C(NO)c1sc2c([N+](=O)[O-])cc(F)cc2[n+]1[O-] [Compound 1g, 5-Fluoro-7-nitro-3-oxy-benzothiazole-2-carboxylic acid hydroxyamide]	7.7 ± 2.9	7.2 ± 3.6	14 ± 5	67 ± 7	6.1 ± 1.1	224 to 225	–
NC(=O)c1sc2c([N+](=O)[O-])cc(C(F)(F)F)cc2[n+]1[O-] [Compound 1a, 7-Nitro-3-oxy-5-trifluoromethyl-benzothiazole-2-carboxylic acid amide]	24 ± 3	47 ± 7	16 ± 8	–	12.6 ± 6.3	–	–
NC(=O)c1sc2c([N+](=O)[O-])cc(SC(F)(F)F)cc2[n+]1[O-] [Compound 1j, 7-Nitro-3-oxy-5-trifluoromethylsulfanyl-benzothiazole-2-carboxylic acid amide]	4 ± 1.8	8.2 ± 0.3	6 ± 0.8	–	2.5 ± 1	255 to 256	–
N#Cc1cc([N+](=O)[O-])c2sc(C(N)=O)[n+]([O-])c2c1 [Compound 1d, 5-Cyano-7-nitro-3-oxy-benzothiazole-2-carboxylic acid amide]	4.2 ± 1.5	6.7 ± 1.2	6.6 ± 0.8	10 ± 7	2 ± 2	–	–
NC(=O)c1sc2c([N+](=O)[O-])cc(F)cc2[n+]1[O-] [Compound 1f, 5-Fluoro-7-nitro-3-oxy-benzothiazole-2-carboxylic acid amide]	3.9 ± 0.2	11.5 ± 2	10.2 ± 2.4	–	1.6 ± 0.2	–	50 to 100

— US20060040997A1, “Benzthiazole-3 oxides useful for the treatment of proliferative disorders” (priority 2003, published 2006)
